Source: patent publication USRE48461E1, “Modulation of androgen receptor expression” (Ionis Pharmaceuticals, Inc., priority 2012, dated 2021)
Oligonucleotides are written 5' to 3', each unit as a sugar letter and its base; * is a phosphorothioate linkage, no mark a phosphodiester; rarer units and linkages stand in square brackets, end groups in braces. Plain capitals give the bases only. k = constrained ethyl (cEt); [5mC] = 5-methylcytosine; d = 2'-deoxy (DNA)

How the values were obtained:
AR mRNA [1] = experiment: AR mRNA in liver, heart, skeletal muscle, kidney, prostate of cynomolgus monkeys; type: in vivo; conditions: cynomolgus monkey, 40 mg/kg subcutaneously
Procedure: Cynomolgus monkeys were treated with ISIS antisense oligonucleotides selected from studies described above. Antisense oligonucleotide efficacy and tolerability were evaluated. The human antisense oligonucleotides tested are cross-reactive with the rhesus genomic sequence (GENBANK Accession No. NW_001218131.1 truncated from nucleotides 134001 to 308000 and designated herein as SEQ ID NO: 189). The target start site and target region of each oligonucleotide to SEQ ID NO: 189, as well as the details of their chemistry and sequence, is presented in Table 133.
RNA was extracted from liver, heart, skeletal muscle, kidney, and prostate tissues for real-time PCR analysis of AR using primer probe set RTS3559. The results were normalized to RIBOGREEN®. Results are presented as percent inhibition of AR mRNA, relative to PBS control.

AR mRNA [2] = experiment: Antisense inhibition of human AR in HuVEC cells, single concentration (electroporation, qRT-PCR RTS3559); type: cell-based; conditions: Table 24, 1,000 nM oligonucleotide, electroporation, approximately 24 hours, relative to untreated control
Outline: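 HuVEC cells electroporated with antisense oligonucleotides at a single concentration. AR mRNA quantified by qRT-PCR using human primer-probe set RTS3559 and normalised to total RNA content by RIBOGREEN.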

AR mRNA [3] = experiment: AR mRNA in LnCaP cells by free uptake (hAR_LTS00943); type: cell-based, human; conditions: 24 hrs
Procedure: Cells were plated at a concentration of 4,000 cells/well in 96-well plates. ISIS oligonucleotides, specified in Table 68, were added individually at 0.02 μM, 0.10 μM, 0.50 μM, 2.50 μM, or 10.00 μM. After an incubation period of 24 hrs, mRNA levels were measured using primer probe set hAR_LTS00943.

AR mRNA [4] = experiment: Dose-dependent antisense inhibition of human AR in HuVEC cells (electroporation, qRT-PCR RTS3559, IC50); type: cell-based; conditions: Table 35, HuVEC, electroporation, approximately 16 hours
Outline: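 HuVEC cells dosed with antisense oligonucleotides by electroporation and treated approximately 16 hours. AR mRNA quantified by real-time qPCR with primer probe set RTS3559 and normalised to total RNA by RIBOGREEN; IC50 from dose-response.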

[5] = cynomolgus monkey, in vivo, sc, 40 mg/kg
Procedure: (§1) Prior to the study, the monkeys were kept in quarantine for a 30-day period, during which the animals were observed daily for general health. The monkeys were 2-4 years old and weighed between 2 and 4 kg. Thirteen groups of four randomly assigned male cynomolgus monkeys each were injected subcutaneously with ISIS oligonucleotide or PBS. PBS solution or ISIS oligonucleotides, at a dose of 40 mg/kg, were administered with a loading regimen consisting of four doses on the first week of the study (days 1, 3, 5, and 7), followed by a maintenance regimen consisting of once weekly administration starting on Day 14 (weeks 2 to 6). Subcutaneous injections were performed in clock-wise rotations at 4 sites on the back; one site per dose. The injection sites were delineated by tattoo, while sedated using ketamine, and were separated by a minimum of 3 cm.
To evaluate the effect of ISIS oligonucleotides on kidney function, the monkeys were fasted overnight. Approximately, 1.5 mL of blood samples were collected from all the study groups on day 44. Blood was collected in tubes without anticoagulant for serum separation. The tubes were kept at room temperature for a minimum of 90 min and then centrifuged at 3,000 rpm for 10 min. Levels of BUN and creatinine were measured using a Toshiba 120FR NEO chemistry analyzer (Toshiba Co., Japan).

[6] = cynomolgus monkey, in vivo, sc, 40 mg/kg; remark: listed apart in the source
[7] = cynomolgus monkey, in vivo, sc, 40 mg/kg; remark: listed apart in the source
Procedure: The monkeys were 2-4 years old and weighed between 2 and 4 kg. Thirteen groups of four randomly assigned male cynomolgus monkeys each were injected subcutaneously with ISIS oligonucleotide or PBS. PBS solution or ISIS oligonucleotides, at a dose of 40 mg/kg, were administered with a loading regimen consisting of four doses on the first week of the study (days 1, 3, 5, and 7), followed by a maintenance regimen consisting of once weekly administration starting on Day 14 (weeks 2 to 6). Subcutaneous injections were performed in clock-wise rotations at 4 sites on the back; one site per dose. The injection sites were delineated by tattoo, while sedated using ketamine, and were separated by a minimum of 3 cm.
To evaluate any inflammatory effect of ISIS oligonucleotides in cynomolgus monkeys, the monkeys were fasted overnight. Approximately, 1.5 mL of blood samples were collected from all the study groups on day 44. Blood was collected in tubes without anticoagulant for serum separation. The tubes were kept at room temperature for a minimum of 90 min and then centrifuged at 3,000 rpm for 10 min. C-reactive protein (CRP), which is synthesized in the liver and which serves as a marker of inflammation, was measured on day 43 using a Toshiba 120FR NEO chemistry analyzer (Toshiba Co., Japan). Complement C3 was also measured similarly, and the data is presented as a percentage of baseline values.

[8] = cynomolgus monkey, in vivo, sc, 40 mg/kg; remark: listed apart in the source
Procedure: as §1
To evaluate the effect of ISIS oligonucleotides on the overall health of the animals, body and organ weights were measured.

[9] = cynomolgus monkey, in vivo, sc, 40 mg/kg; remark: listed apart in the source

584149 (kG*kT*k[5mC]*dA*dA*dT*dA*dT*d[5mC]*dA*dA*dA*dG*k[5mC]*kA*k[5mC]) [compound 584149]
Percent Inhibition of AR mRNA relative to the PBS control, Heart (AR mRNA [1]; weeks 1 to 6, Heart): 33% | Percent Inhibition of AR mRNA relative to the PBS control, Kidney (AR mRNA [1]; weeks 1 to 6, Kidney): 77% | Percent Inhibition of AR mRNA relative to the PBS control, Liver (AR mRNA [1]; weeks 1 to 6, Liver): 93% | Percent Inhibition of AR mRNA relative to the PBS control, Prostate (AR mRNA [1]; weeks 1 to 6, Prostate): 45% | Percent Inhibition of AR mRNA relative to the PBS control, Skeletal Muscle (AR mRNA [1]; weeks 1 to 6, Skeletal Muscle): 63% | % inhibition (AR mRNA [2]): 85% | Percent inhibition of AR mRNA (AR mRNA [3]; 0.02 μM): 0% | Percent inhibition of AR mRNA (AR mRNA [3]; 0.1 μM): 0% | Percent inhibition of AR mRNA (AR mRNA [3]; 0.5 μM): 0% | Percent inhibition of AR mRNA (AR mRNA [3]; 10 μM): 39% | percent inhibition of AR, 46.9 nM (AR mRNA [4]; 46.9 nM): 11% | percent inhibition of AR, 187.5 nM (AR mRNA [4]; 187.5 nM): 37% | percent inhibition of AR, 750.0 nM (AR mRNA [4]; 750.0 nM): 68% | percent inhibition of AR, 3000.0 nM (AR mRNA [4]; 3000.0 nM): 89% | IC50 (AR mRNA [4]): 310 nM

TGATTTAATGGTTGCA [ISIS 569213] (cEt/MOE gapmer chemistry, further chemistry not given here)
Plasma BUN [5]: 29.4 mg/dL | Plasma Creatinine [5]: 0.91 mg/dL | HCT [6]: 42% | Hemoglobin [6]: 12.5 g/dL | Platelets [6]: 426000 µL | RBC [6]: 5.6e+06 µL | WBC [6]: 12900 µL | C3 (% of baseline) [7]: 60 % of baseline | CRP [7]: 2.8 mg/dL | Body Wt [8]: 2.4 kg | Heart weight [8]: 8.3 g | Kidney weight [8]: 16 g | Liver weight [8]: 69 g | Mesenteric lymph nodes weight [8]: 2.4 g | Spleen weight [8]: 5.3 g | ALT [9]: 47 IU/L | AST [9]: 80 IU/L | Albumin [9]: 3.7 g/dL
